According to patent US20220338470A1, “AGRICULTURAL COMPOSITIONS FOR IMPROVED CROP PRODUCTIVITY AND ENHANCED PHENOTYPES” (Spogen Biotech Inc., priority 2018, published 2022):
Where a name gives a salt, the structure may show the parent alone.

Legend:
Assay type in all cases: in vivo
[1] = system: corn (DKC 58-89, DKC 52-61, DKC 65-81); experiment: V5 corn yield, choline chloride, calcium chloride and PLURONIC F-68; settings: for Avg. Yield (Bu/Ac) Trial 1 / Avg. Yield (Bu/Ac) Trial 2: foliar at V5 corn; for Avg. Yield (Bu/Ac) Trial 1: three hybrids (* two hybrids only), trial 1, one location; for Avg. Yield (Bu/Ac) Trial 2: three hybrids; for Avg. Δ in Yield (Bu/Ac): vs base seed treatment control, average of trials 1 and 2; for yield increase compared to base seed treatment control plants: foliar at V5
Experimental: In a separate experiment, large acre field trials were conducted using one and two location trials in the US Midwest (IL) planted with three different corn hybrids (DEKALB: DKC 58-89; DKC 52-61; DKC 65-81). Seed from each of the corn hybrids was coated with a seed treatment of EVERGOL® fungicide combined with PONCHO®/VOTIVO® 500. Foliar treatments comprising a non-ionic polyoxyethylene-polyoxypropylene block copolymer surfactant (PLURONIC F-68, an anti-respirant), a quaternary ammonium salt (choline chloride) and/or a di-hydrated salt (calcium chloride) were applied to corn plants at the V5 stage of development. The foliar treatments were applied using the final concentrations and application use rates as described in Table 42. Choline chloride was selected for its osmolyte-like properties. Choline chloride is a precursor of acetylcholine and is involved in the regulation of water resorption in plants. Choline chloride was tested as a foliar application treatment individually and in combination an anti-respirant (PLURONIC F 68 surfactant). Average yield in Bu/Ac was reported for two trials. Trial 1 was conducted at one location and trial 2 was conducted at two locations in the US Midwest (IL). Yield (Bu/Ac) is reported as the average yield across location(s) and as the average for all three hybrids except where indicated in Table 42 and as the average change in yield (Bu/Ac) compared to the yield from the seed treatment control plants. The Base Seed Treatment control plants received only the EVERGOL® fungicide+PONCHO®/VOTIVO® 500 seed treatment and not any foliar treatments.

[2] = system: corn (Beck's hybrid 5828 YH); experiment: Soil drench of corn seedlings under drought, growth during V2-V3 transition; settings: for % Δ in Plant Height Compared to Control: 11 DAP to 14 DAP, vs water-only control; for change in plant height during V2 to V3 transition compared to water-only control: soil drench at planting and day 3, 11 to 14 days after planting; for Plant Growth during the transition of V2-V3 stage (11 DAP to 14 DAP): soil drench, each component 438.5 mL/hectare, droughted conditions
From the text: The anti-respirant also functioned as an infiltration surfactant (above-soil surfactant or penetrant) and the anti-desiccant functioned as a humectant. […] A combined treatment with betaine-HCl (osmoprotectant), an infiltration surfactant (anti-respirant) and a humectant (anti-desiccant) was also compared with other drench treatments and a water-only control. Glycerol, a polyol compound that has three hydroxyl groups that are responsible for its solubility in water and its hydroscopic nature, was selected as a viscous humectant to combine with the betaine-HCl osmoprotectant and the infiltration surfactant. This triple treatment combination was selected based on its mode of action properties in soil drench applications that promote the retention and management of moisture by attracting moisture and condensing it for contact to the germinating seed and/or growing plant. The treatment combination was provided as a soil drench at the time of planting and again at emergence to promote rapid growth at the early V stages of development, enhance early vigor, provide for a robust stand establishment, and protect against the effects of drought during early seedling establishment. The betaine-HCl osmoprotectant was provided at a final application concentration of 83.49 mM. The infiltration surfactant was diluted in water at the recommended application use rate using a ratio of 1:1600 (surfactant to water) (52.9 μM). The humectant was provided at a final application treatment of 1% diluted in water (136.8 mM). The individual and combined treatments were provided using the application use rates (Fl. oz/Ac) as specified in Tables 54 and 55. […] In Table 55, the application use rates for all three components were the same. […] Seeds were planted at a depth of 2.54 cm, with two seeds per pot. After planting, seeds were supplied with 50 mL of the each of the treatments (as described in Tables 54 and 55) at room temperature and added to the soil in each pot as a soil drench provided at an equivalent application use rate as specified. […] After application of the second drench, the plants were left un-watered to induce and simulate droughted conditions that may occur during early seedling establishment. […] At 11 days after planting, plant height was determined for each plant in the various treatments. Corn plants provided with treatments as described in Table 55 received an additional 50 mL of water at 11 days after planting.

[3] = system: corn (Beck's hybrid 5828 YH); experiment: Corn growth rate under droughted conditions, alternative osmoprotectants; settings: two weeks un-watered; Anti-Respirant Control A 29.0%
From the text: Stachydrine was selected as an osmoprotectant that acts as a negative control due to its functional role in the induction of nodulation (Phillips, D. A., Joseph, C. M., Maxwell, C. A., “Trigonelle and stachydrine released from alfalfa seeds activate NodD2 protein in Rhizobium meliloti” (1992) Plant Physiology 99: 1526-1531). Stachydrine acts through a different mode of action as compared to the betaine-HCl osmoprotectant. Plant growth rates under droughted conditions were compared in corn treated with foliar applications comprising betaine-HCl, strachydrine or myo-inositol (see Table 37). Corn (Beck's hybrid 5828 YH) plants were planted in an environmentally controlled growth facility and grown using the conditions described in the first paragraph of this example. At 1.5 weeks, the plants were provided with another 50 mL of water per pot and plant height was measured for each plant. Plants were then segregated to prevent any cross contamination between the foliar treatments. […] Relative percent growth rate under droughted conditions was calculated for each plant in each treatment replicate using the percent (%) growth rate equation (as provided above in this Example). […]

soybean (Asgrow AG4034) = experiment: R2 soybean yield, trehalose, potassium acetate and SILWET L-77; settings: for Avg. Yield (Bu/Ac): foliar at R2 soybean AG4034, three locations; for Avg. Δ in Yield (Bu/Ac): vs base seed treatment control
From the text: In another experiment, large acre yield replicated trials of soybean (variety: Asgrow AG4034) were planted from seed treated with a base seed treatment package containing […]® fungicide and PONCHO®/VOTIVO® 500 in three locations in the US Midwest (IL). […] Trehalose is a non-reducing carbohydrate resistant to acid hydrolysis and stable in solution under high temperatures and acidic conditions. Trehalose was applied separately and in combination with a non-blended organosilicone surfactant ([…]-77) as a foliar spray application to soybean plants. Final concentrations at application were as follows: […]

O.O.[Ca+2].[Cl-].[Cl-] [Calcium Chloride (dihydrate)]
Avg. Yield (Bu/Ac) Trial 1 [1]: 201.4 Bu/Ac | Avg. Yield (Bu/Ac) Trial 2 [1]: 169.6 Bu/Ac | Avg. Δ in Yield (Bu/Ac) [1]: +11.8 Bu/Ac

OCC(O)CO [humectant-only control, glycerol]
% Δ in Plant Height Compared to Control [2]: +3% | change in plant height during V2 to V3 transition compared to water-only control [2]: +3% | Plant Growth during the transition of V2-V3 stage (11 DAP to 14 DAP) [2]: 2.98 cm

C[N+](C)(C)CC(=O)O [osmoprotectant-only control, betaine-HCl]
% Δ in Plant Height Compared to Control [2]: +8% | change in plant height during V2 to V3 transition compared to water-only control [2]: +8% | Plant Growth during the transition of V2-V3 stage (11 DAP to 14 DAP) [2]: 3.11 cm

O[C@H]1[C@H](O)[C@@H](O)[C@H](O)[C@@H](O)[C@H]1O [Myo-inositol, myo-inositol]
Relative Growth Rate (%) under Droughted Conditions [3]: 31.1%

OC[C@H]1O[C@H](O[C@H]2O[C@H](CO)[C@@H](O)[C@H](O)[C@H]2O)[C@H](O)[C@@H](O)[C@@H]1O [trehalose]
average change in soybean yield compared to seed treatment-only control (soybean (Asgrow AG4034); R2, trehalose 6.4 Fl. oz/Ac, SILWET L-77 3.2 Fl. oz/Ac, three locations): +1.49 Bu/Ac | Avg. Yield (Bu/Ac) (soybean (Asgrow AG4034)): 68.3 Bu/Ac | Avg. Δ in Yield (Bu/Ac) (soybean (Asgrow AG4034); three locations): +1.49 Bu/Ac

[Ca+2].[Cl-].[Cl-] [calcium chloride]
yield increase compared to base seed treatment control plants [1]: +11.8 Bu/Ac

C[N+](C)(C)CCO.[Cl-] [choline chloride]
yield increase compared to base seed treatment control plants [1]: +8.5 Bu/Ac | Avg. Yield (Bu/Ac) Trial 1 [1]: 207.3* Bu/Ac | Avg. Yield (Bu/Ac) Trial 2 [1]: 157.2 Bu/Ac | Avg. Δ in Yield (Bu/Ac) [1]: +8.5 Bu/Ac

CC(=O)[O-].[K+] [Potassium Acetate]
Avg. Yield (Bu/Ac) (soybean (Asgrow AG4034)): 67.2 Bu/Ac | Avg. Δ in Yield (Bu/Ac) (soybean (Asgrow AG4034); three locations): +0.35 Bu/Ac
